{"source": "a melting point compilation (Tetko et al.; mined from patent text by program, amines drawn as free bases though some values may be those of a salt)"}
{"units": {"melting point": "°C"}}
{"smiles": "CC(=O)OCCOc1ncc(Cl)c(N)c1Cl", "melting point": "76 to 77"}
{"smiles": "Cc1ncccc1C(N)=O", "melting point": "160 to 163"}
{"smiles": "Cc1nc(N2CCN(Cc3cccc(C(F)(F)F)c3)C2=O)sc1C(=O)NCc1cccnc1", "melting point": "175 to 176"}
{"smiles": "COc1ccc(-c2nc3sccn3c2/C=C/C(=O)c2ccc[nH]2)cc1", "melting point": "177 to 179"}
{"smiles": "O=c1oc(C(F)F)nc2c(C(F)(F)F)cccc12", "melting point": 82}
{"smiles": "O=C(Nc1nccs1)c1cccc(C[C@@H]2COc3ccc(OCc4nc5cc(F)ccc5s4)cc3[C@@H]2O)c1", "note": "(relative stereo)", "melting point": 120}
{"smiles": "CCc1cccc(-n2ncc(C(=O)O)c2C(N)=O)c1", "melting point": "176 to 178"}
{"smiles": "Cc1cc([N+](=O)[O-])c(Cl)cc1Cl", "melting point": "40 to 44"}
{"smiles": "CCOC(=O)/C=C/c1cn(Cc2ccc(OCc3nc(-c4ccco4)oc3C)cc2)nc1OCc1ccc(OCc2nc(-c3ccco3)oc2C)cc1", "melting point": "138 to 139"}
{"smiles": "Cc1csc(C#CCCn2nc3ccccc3n2)n1", "melting point": "78 to 80"}
{"smiles": "O=C(NC1N=C(c2ccccc2F)c2ccccc2NC1=S)c1ccc(Cl)cc1", "note": "(stereo not given)", "melting point": "156 to 158"}
{"smiles": "CC(CSC(=S)c1ccccc1)C(=O)N1CCCC1C(=O)O", "note": "(stereo not given)", "melting point": "157 to 158"}
{"smiles": "CC(=O)Nc1c(C(=O)c2cccc(C#N)c2)[nH]c2cc(Cl)ccc12", "melting point": "185 to 187"}
{"smiles": "COC(=O)C(C)=Cc1ccc(O)cc1", "melting point": "103 to 104"}
{"smiles": "Oc1cnc2cc(F)ccc2n1", "melting point": "304 to 305"}
{"smiles": "CC(C)(C)c1ccc(-c2cccc(-c3ccc(C(C)(C)C)cc3)c2N)cc1", "melting point": 106}
{"smiles": "Cc1ccc(CC(N)=O)c(C)c1OC(F)F", "melting point": "136 to 137"}
{"smiles": "C=CC(C)OC(=O)c1c(C)nc2c(cnn2CCCCC)c1N", "note": "(stereo not given)", "melting point": "64.6 to 67.2"}
{"smiles": "CCCCOc1cc(Oc2ccc(C(F)(F)F)cn2)ccc1CCCOc1c(CC(=O)O)cccc1OC", "melting point": "64 to 65"}
{"smiles": "CC(C)(C)OC(=O)Nc1ccc(C#Cc2ccc(OC(F)(F)F)cc2)cc1NC(=O)CC(=O)c1cccc(C#N)c1", "melting point": "152 to 154"}
{"smiles": "c1ccc2c(c1)CCc1ccccc1C21CO1", "melting point": "79 to 80"}
{"smiles": "NS(=O)(=O)Oc1ccccc1C(=O)O", "melting point": "139 to 140"}
{"smiles": "O=c1[nH]c(=O)n(Cc2ccc(Oc3ccc(Cn4oc(=O)[nH]c4=O)cc3)cc2)o1", "melting point": "175 to 178"}
{"smiles": "CC(C)Oc1ccc(C(CC(N)=O)N2C(=O)c3ccccc3C2=O)cc1OC(C)C", "note": "(stereo not given)", "melting point": "153 to 154"}
{"smiles": "Cc1nc(NC(=O)NS(=O)(=O)c2ccccc2[N+](=O)[O-])nc2c1CCC2", "melting point": "202 to 205"}
{"smiles": "CC1(C)COc2cc(C(F)(F)F)ccc2C(O)(c2ccccn2)C1", "note": "(stereo not given)", "melting point": 78}
{"smiles": "Cc1ccn2cc(CCc3ccc4nc(N)oc4c3)nc2c1", "melting point": "262 to 264"}
{"smiles": "COc1cc(C=O)ccc1OCc1nc(-c2ccccc2)cn1C", "melting point": "128 to 129"}
{"smiles": "N#Cc1ccc(N2CCC(=O)CC2)cc1", "melting point": "100 to 101"}
{"smiles": "O=C(Nc1cc(Cl)ccc1C(=O)O)NS(=O)(=O)c1ccc(OCCN2CCN(c3ccccc3)CC2)cc1", "melting point": "177 to 179"}
{"smiles": "CCOC(=O)C1C(=O)NC(=O)C12C(=O)N(Cc1ccc(Cl)c(Cl)c1)c1ccccc12", "note": "(stereo not given)", "melting point": "60 to 85"}
{"smiles": "O=C(c1ccc(Oc2ccc(S(=O)c3ccc(Oc4ccc(C(=O)C(Cl)(Cl)Cl)cc4)cc3)cc2)cc1)C(Cl)(Cl)Cl", "melting point": "154 to 156"}
{"smiles": "CS(=O)c1ccc(COc2cccc(C(=O)Nc3ccc(C#N)cc3)c2)cc1", "note": "(stereo not given)", "melting point": "174 to 175"}
{"smiles": "O=C(c1ccccc1C(c1ccc(O)cc1)c1ccc(O)cc1)N(c1ccccc1)c1ccccc1", "melting point": "262 to 263"}
{"smiles": "CO[C@H]1c2ccn3c(C)c(C)nc3c2N[C@H](c2ccccc2)[C@H]1O", "melting point": "108 to 110"}
{"smiles": "O=C(Nc1nccs1)C1CSc2sccc2C1=O", "note": "(stereo not given)", "melting point": "201 to 203"}
{"smiles": "CCCC(=O)Nc1cnc2cccnc2c1O", "melting point": "> 360"}
{"smiles": "C[C@H]1C(=O)N2[C@H](c3ccc4c(c3)OCO4)c3[nH]c4ccccc4c3C[C@@H]2C(=O)N1C", "melting point": "219 to 220"}
{"smiles": "O=C(NO)c1ccc2c(c1)CN(C(=O)c1ccc(-c3ccccc3)cc1)C2", "melting point": "160 to 190"}
{"smiles": "O=C(CNc1ccc(F)cc1)Nc1c(Cl)ccc2nc(N3CC[C@@H](O)C3)ccc12", "melting point": "242 to 246"}
{"smiles": "COc1ccc(C=C[N+](=O)[O-])c(Cl)c1OC", "melting point": "88 to 91"}
{"smiles": "N=c1nc(N)c2nc[nH]c2c(N)n1", "melting point": "> 200"}
{"smiles": "CC(=O)Nc1ccc(Cl)cc1NC(C)=O", "melting point": 216}
{"smiles": "CCCN(CCC)CCC1=CC(=O)CCC1", "melting point": "95 to 97"}
{"smiles": "CCc1nn2c(Cl)cc(Cl)nc2c1S(=O)(=O)c1ccccc1", "melting point": "166 to 167"}
{"smiles": "CCOC(=O)c1cnc2cc([N+](=O)[O-])ccc2n1", "melting point": "221 to 223"}
{"smiles": "COc1ccc2c(c1)C(C1CCC1)=NCC2", "melting point": "44 to 46"}
{"smiles": "Cc1c(Br)c2c(c(C)c1NC(=O)OC(C)(C)C)C(=O)C(C)(C)O2", "melting point": "131 to 132"}
{"smiles": "Cc1nc2cnccc2n1-c1ccccc1", "melting point": "134 to 136"}
{"smiles": "COC(=O)C1CCC(C)(C(=O)c2ccc(OC)cc2OC)C1(C)C", "note": "(stereo not given)", "melting point": 108}
